Among the data in PubChem BioAssay (NCI) are TGI values, retold here.

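Method: 48-hour compound exposure of cells in 96-well plates, five concentrations, linear interpolation of endpoints. TGI is the concentration that stops growth completely.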

One test deals with 786-0 renal. The test can be described thus: NCI tumour cell line growth inhibition, 48 h.
`O=C(O)C(SC(=S)c1ccc(C(=S)SC(C(=O)O)c2ccccc2)cc1)c1ccccc1` (stereo not drawn) came in with a TGI of more than 100 µM.

The molecule `C/C(=N\NS(=O)(=O)c1ccc(C)cc1)C(CN1CCCCC1)C(c1ccccc1)c1c(O)c2ccccc2oc1=O` (stereo not drawn) had a TGI of more than 100 µM.

`OC(c1ccccc1)(c1ccccc1)c1ccncc1` came in with a TGI of more than 100 µM.

A further test deals with DMS 114 small cell lung. In words: NCI tumour cell line growth inhibition, 48 h.
In turn, `O=C(O)C(SC(=S)c1ccc(C(=S)SC(C(=O)O)c2ccccc2)cc1)c1ccccc1` (stereo not drawn) had a TGI of more than 100 µM.

Regarding `OC(c1ccccc1)(c1ccccc1)c1ccncc1`, the TGI is more than 100 µM.

For the molecule `O=C(Nc1ccc(Cl)cc1)c1cc2cc(N=Nc3ccccc3Cl)ccc2oc1=O`, the TGI is 25 µM.

Another test deals with LOX IMVI melanoma. In words: NCI tumour cell line growth inhibition, 48 h.
Molecule `O=C(O)C(SC(=S)c1ccc(C(=S)SC(C(=O)O)c2ccccc2)cc1)c1ccccc1` (stereo not drawn) yielded a TGI of more than 100 µM.

The molecule `C/C(=N\NS(=O)(=O)c1ccc(C)cc1)C(CN1CCCCC1)C(c1ccccc1)c1c(O)c2ccccc2oc1=O` (stereo not drawn) registered a TGI of more than 100 µM.

As to `OC(c1ccccc1)(c1ccccc1)c1ccncc1`, the TGI is more than 100 µM.

A further test concerns HT29 colon. In words: NCI tumour cell line growth inhibition, 48 h.
`O=C(O)C(SC(=S)c1ccc(C(=S)SC(C(=O)O)c2ccccc2)cc1)c1ccccc1` (stereo not drawn): the TGI is more than 100 µM.

In the case of `C/C(=N\NS(=O)(=O)c1ccc(C)cc1)C(CN1CCCCC1)C(c1ccccc1)c1c(O)c2ccccc2oc1=O` (stereo not drawn), the TGI is more than 100 µM.

With `OC(c1ccccc1)(c1ccccc1)c1ccncc1`, the TGI is more than 100 µM.

As for `O=C(Nc1ccc(Cl)cc1)c1cc2cc(N=Nc3ccccc3Cl)ccc2oc1=O`, the TGI came out at 29.6 µM.

A further test deals with SK-MEL-28 melanoma. In words: NCI tumour cell line growth inhibition, 48 h.
In turn, `O=C(O)C(SC(=S)c1ccc(C(=S)SC(C(=O)O)c2ccccc2)cc1)c1ccccc1` (stereo not drawn) yielded a TGI of more than 100 µM.

`OC(c1ccccc1)(c1ccccc1)c1ccncc1`: the TGI was more than 100 µM.

For `O=C(Nc1ccc(Cl)cc1)c1cc2cc(N=Nc3ccccc3Cl)ccc2oc1=O`, the TGI is 55.7 µM.

In another test the test system is A498 renal. In words: NCI tumour cell line growth inhibition, 48 h.
In the case of `O=C(O)C(SC(=S)c1ccc(C(=S)SC(C(=O)O)c2ccccc2)cc1)c1ccccc1` (stereo not drawn), the TGI is more than 100 µM.

Consider `C/C(=N\NS(=O)(=O)c1ccc(C)cc1)C(CN1CCCCC1)C(c1ccccc1)c1c(O)c2ccccc2oc1=O` (stereo not drawn), for which the TGI was more than 100 µM.

For another test, the system named is OVCAR-8 ovarian. The test can be described thus: NCI tumour cell line growth inhibition, 48 h.
As for `O=C(O)C(SC(=S)c1ccc(C(=S)SC(C(=O)O)c2ccccc2)cc1)c1ccccc1` (stereo not drawn), the TGI is more than 100 µM.

Molecule `C/C(=N\NS(=O)(=O)c1ccc(C)cc1)C(CN1CCCCC1)C(c1ccccc1)c1c(O)c2ccccc2oc1=O` (stereo not drawn) had a TGI of more than 100 µM.

In turn, `OC(c1ccccc1)(c1ccccc1)c1ccncc1` came in with a TGI of more than 100 µM.

Consider `O=C(Nc1ccc(Cl)cc1)c1cc2cc(N=Nc3ccccc3Cl)ccc2oc1=O`, for which the TGI is 59 µM.

In a further test the test system is HOP-62 NSCLC. In words: NCI tumour cell line growth inhibition, 48 h.
`O=C(O)C(SC(=S)c1ccc(C(=S)SC(C(=O)O)c2ccccc2)cc1)c1ccccc1` (stereo not drawn) registered a TGI of more than 100 µM.

In turn, `C/C(=N\NS(=O)(=O)c1ccc(C)cc1)C(CN1CCCCC1)C(c1ccccc1)c1c(O)c2ccccc2oc1=O` (stereo not drawn) registered a TGI of more than 100 µM.

As for `OC(c1ccccc1)(c1ccccc1)c1ccncc1`, the TGI is more than 100 µM.

In the case of `O=C(Nc1ccc(Cl)cc1)c1cc2cc(N=Nc3ccccc3Cl)ccc2oc1=O`, the TGI came to 61.9 µM.

For another test, the system named is RPMI-8226 leukemia. The test can be described thus: NCI tumour cell line growth inhibition, 48 h.
`O=C(O)C(SC(=S)c1ccc(C(=S)SC(C(=O)O)c2ccccc2)cc1)c1ccccc1` (stereo not drawn) displayed a TGI of more than 100 µM.

`C/C(=N\NS(=O)(=O)c1ccc(C)cc1)C(CN1CCCCC1)C(c1ccccc1)c1c(O)c2ccccc2oc1=O` (stereo not drawn) displayed a TGI of more than 100 µM.

As to `OC(c1ccccc1)(c1ccccc1)c1ccncc1`, the TGI is more than 100 µM.

As to `O=C(Nc1ccc(Cl)cc1)c1cc2cc(N=Nc3ccccc3Cl)ccc2oc1=O`, the TGI came to 30.3 µM.

The subject of the next test is MALME-3M melanoma. In words: NCI tumour cell line growth inhibition, 48 h.
With `O=C(O)C(SC(=S)c1ccc(C(=S)SC(C(=O)O)c2ccccc2)cc1)c1ccccc1` (stereo not drawn), the TGI was more than 100 µM.

`C/C(=N\NS(=O)(=O)c1ccc(C)cc1)C(CN1CCCCC1)C(c1ccccc1)c1c(O)c2ccccc2oc1=O` (stereo not drawn): the TGI is more than 100 µM.

`OC(c1ccccc1)(c1ccccc1)c1ccncc1`: the TGI was more than 100 µM.

`O=C(Nc1ccc(Cl)cc1)c1cc2cc(N=Nc3ccccc3Cl)ccc2oc1=O` displayed a TGI of 48.3 µM.

The subject of a further test is COLO 205 colon. In words: NCI tumour cell line growth inhibition, 48 h.
`C/C(=N\NS(=O)(=O)c1ccc(C)cc1)C(CN1CCCCC1)C(c1ccccc1)c1c(O)c2ccccc2oc1=O` (stereo not drawn) gave a TGI of more than 100 µM.

Take `OC(c1ccccc1)(c1ccccc1)c1ccncc1`: the TGI is more than 100 µM.

Consider `O=C(Nc1ccc(Cl)cc1)c1cc2cc(N=Nc3ccccc3Cl)ccc2oc1=O`, for which the TGI is more than 100 µM.

A further test concerns HOP-92 NSCLC. The test can be described thus: NCI tumour cell line growth inhibition, 48 h.
Consider `O=C(O)C(SC(=S)c1ccc(C(=S)SC(C(=O)O)c2ccccc2)cc1)c1ccccc1` (stereo not drawn), for which the TGI was more than 100 µM.

`C/C(=N\NS(=O)(=O)c1ccc(C)cc1)C(CN1CCCCC1)C(c1ccccc1)c1c(O)c2ccccc2oc1=O` (stereo not drawn) came in with a TGI of more than 100 µM.

Consider `OC(c1ccccc1)(c1ccccc1)c1ccncc1`, for which the TGI was more than 100 µM.

In turn, `O=C(Nc1ccc(Cl)cc1)c1cc2cc(N=Nc3ccccc3Cl)ccc2oc1=O` had a TGI of 38.8 µM.

The test system of another test is DMS 273 small cell lung. In words: NCI tumour cell line growth inhibition, 48 h.
The molecule `O=C(O)C(SC(=S)c1ccc(C(=S)SC(C(=O)O)c2ccccc2)cc1)c1ccccc1` (stereo not drawn) gave a TGI of more than 100 µM.

`OC(c1ccccc1)(c1ccccc1)c1ccncc1`: the TGI was more than 100 µM.

A further test concerns MOLT-4 leukemia. The test can be described thus: NCI tumour cell line growth inhibition, 48 h.
As to `O=C(O)C(SC(=S)c1ccc(C(=S)SC(C(=O)O)c2ccccc2)cc1)c1ccccc1` (stereo not drawn), the TGI is more than 100 µM.

In turn, `OC(c1ccccc1)(c1ccccc1)c1ccncc1` showed a TGI of more than 100 µM.

Turning to `O=C(Nc1ccc(Cl)cc1)c1cc2cc(N=Nc3ccccc3Cl)ccc2oc1=O`, the TGI turned out to be 10.1 µM.

Another test concerns A549 NSCLC. In words: NCI tumour cell line growth inhibition, 48 h.
Turning to `O=C(O)C(SC(=S)c1ccc(C(=S)SC(C(=O)O)c2ccccc2)cc1)c1ccccc1` (stereo not drawn), the TGI was more than 100 µM.

`C/C(=N\NS(=O)(=O)c1ccc(C)cc1)C(CN1CCCCC1)C(c1ccccc1)c1c(O)c2ccccc2oc1=O` (stereo not drawn) had a TGI of more than 100 µM.

On to `OC(c1ccccc1)(c1ccccc1)c1ccncc1`, for which the TGI was more than 100 µM.

`O=C(Nc1ccc(Cl)cc1)c1cc2cc(N=Nc3ccccc3Cl)ccc2oc1=O` registered a TGI of more than 100 µM.

The next test has as its system XF 498 CNS. In words: NCI tumour cell line growth inhibition, 48 h.
Take `O=C(O)C(SC(=S)c1ccc(C(=S)SC(C(=O)O)c2ccccc2)cc1)c1ccccc1` (stereo not drawn): the TGI was more than 100 µM.

The molecule `C/C(=N\NS(=O)(=O)c1ccc(C)cc1)C(CN1CCCCC1)C(c1ccccc1)c1c(O)c2ccccc2oc1=O` (stereo not drawn) gave a TGI of more than 100 µM.

Regarding `OC(c1ccccc1)(c1ccccc1)c1ccncc1`, the TGI was more than 100 µM.
